These results are taken from doi:10.1101/2024.06.07.597859v1 (biorxiv, 2024).

This test deals with T1, PfTSEN1 (Plasmodium falciparum, UniProt A0A144A1E9).
T1 sequence (A0A144A1E9 1-220): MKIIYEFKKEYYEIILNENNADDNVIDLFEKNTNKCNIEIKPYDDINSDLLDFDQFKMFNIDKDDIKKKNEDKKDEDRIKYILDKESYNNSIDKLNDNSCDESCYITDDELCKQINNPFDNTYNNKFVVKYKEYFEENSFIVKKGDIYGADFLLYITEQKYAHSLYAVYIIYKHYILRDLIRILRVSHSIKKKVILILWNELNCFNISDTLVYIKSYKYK
Put plainly: microscale thermophoresis. Format: binding. In general terms: MST reads how a fluorescent partner responds to local heating, with and without ligand.

One may read the Kd as a measure of binding affinity in units of concentration. A lower Kd goes with a tighter complex.

For `NCCCn1ccc2c1C(=O)c1cccnc1C2=O` [TSENi, 1-(3-aminopropyl)-1H-pyrrolo[2,3-f]quinoline-4,9-dione], the Kd was found to be 945 nM.
